Patent US20240139167A1, “LYSOSOME-ASSOCIATED MEMBRANE PROTEIN TARGETING COMPOUNDS AND USES THEREOF” (HADASIT MEDICAL RESEARCH SERVICES AND DEVELOPMENT LTD., priority 2021, published 2024)

System: PD patient-derived skin fibroblasts
Assay: Autophagic flux in Pompe disease fibroblasts
Assay type: cell-based, human
Experimental: FIG. 15 includes a micrograph and a vertical bar graph showing autophagic flux in PD patient-derived skin fibroblasts, serum starved and treated (or not) with 50 μM 144DG11 (indicated as comp. A).
144DG11 can activate autophagy in the lysosomal storage disease (LSD) Pompe disease (PD) in which autophagy is perturbed (FIG. 15). […] This ratio serves as the most accepted marker for autophagy and autophagic flux. […] These observations indicate that, as in the GSD APBD, 144DG11 can activate autophagy also in the typical LSD PD in which autophagy is disturbed.

Question: How did the “ratio of LC3II to LC3I” value turn out when `CC[C@]1(O)C[C@@H]2CN(CCc3c([nH]c4ccccc34)[C@@](C(=O)OC)(c3cc4c(cc3OC)N(C)[C@H]3[C@@](O)(C(=O)OC)[C@H](OC(C)=O)[C@]5(CC)C=CCN6CC[C@]43[C@@H]65)C2)C1` [vinblastine, reference compound] was run?
Answer: increased
